In PubChem BioAssay AID230 (DTP/NCI, 2004):
“And” between values parts separate entries of the source, which are not always exact repeats. Equal values may be shown once. Toxic doses and inconclusive results are not listed.

Tested on: C3H/He mice, Gardner lymphosarcoma 6C3HED ip, survival T/C
Test: NCI In Vivo Anticancer Drug Screen. Data for tumor model Lymphosarcoma Gardner 6C3HED (intraperitoneal) in C3H/He mice
Details: higher = longer survival
Experimental: The antitumor activity of compounds was measured in mice bearing transplantable tumors. Survival or tumor size were measured and the results are expressed as the measurement made in the treated group (T) divided by the measurement made in the vehicle treated control group (C). The tumor model used in this assay is Lymphosarcoma Gardner 6C3HED (intraperitoneal) in C3H/He mice

[1] = endpoint: survival time, mean or median, dose: 25.0 mg/kg/injection, schedule: Q01DX010 (ip), vehicle: saline
[2] = endpoint: survival time, mean or median, dose: 50.0 mg/kg/injection, schedule: Q01DX010 (ip), vehicle: saline
[3] = endpoint: survival time, mean or median, dose: 100.0 mg/kg/injection, schedule: Q01DX010 (ip), vehicle: saline
[4] = endpoint: survival time, mean or median, dose: 200.0 mg/kg/injection, schedule: Q01DX010 (ip), vehicle: saline
[5] = endpoint: survival time, mean or median, dose: 5.0 mg/kg/injection, schedule: Q01DX010 (ip), vehicle: saline
[6] = endpoint: survival time, mean or median, dose: 20.0 mg/kg/injection, schedule: Q01DX010 (ip), vehicle: saline
[7] = endpoint: survival time, mean or median, dose: 40.0 mg/kg/injection, schedule: Q01DX010 (ip), vehicle: saline
[8] = endpoint: survival time, mean or median, dose: 62.5 mg/kg/injection, schedule: Q01DX010 (ip), vehicle: saline
[9] = endpoint: survival time, mean or median, dose: 125.0 mg/kg/injection, schedule: Q01DX010 (ip), vehicle: saline
[10] = endpoint: survival time, mean or median, dose: 250.0 mg/kg/injection, schedule: Q01DX010 (ip), vehicle: saline
[11] = endpoint: survival time, mean or median, dose: 10.0 mg/kg/injection, schedule: Q01DX010 (ip), vehicle: saline

**Q.** For `COc1cc2c(c(OC)c1OC)-c1ccc(OC)c(=O)cc1[C@@H](NC(C)=O)CC2`, which T/C (endpoint: survival time, mean or median, dose: 0.01 mg/kg/injection, schedule: Q01DX010 (ip), vehicle: saline) is on record?
**A.** 100 % of control

**Q.** What about the T/C (endpoint: survival time, mean or median, dose: 0.02 mg/kg/injection, schedule: Q01DX010 (ip), vehicle: saline) of the same compound?
**A.** 103 % of control

**Q.** What about the T/C (endpoint: survival time, mean or median, dose: 0.04 mg/kg/injection, schedule: Q01DX010 (ip), vehicle: saline) of the same compound?
**A.** 100 % of control

**Q.** And the T/C (endpoint: survival time, mean or median, dose: 0.08 mg/kg/injection, schedule: Q01DX010 (ip), vehicle: saline)?
**A.** 121 % of control

**Q.** Which results are given for `CC(C)CC(NC(=O)C(O)C(N)Cc1ccccc1)C(=O)O` (centres undefined)?
**A.** T/C (endpoint: median survival time, dose: 2.5 mg/kg/injection, schedule: Q01DX005 (oral), vehicle: saline): 94 % of control; T/C (endpoint: median survival time, dose: 5.0 mg/kg/injection, schedule: Q01DX005 (oral), vehicle: saline): 95 % of control; T/C (endpoint: median survival time, dose: 10.0 mg/kg/injection, schedule: Q01DX005 (oral), vehicle: saline): 95 % of control

**Q.** How did the T/C [1] turn out when `NC(=O)n1cccn1` was run?
**A.** 89 % of control

**Q.** What about the T/C [2] of the same compound?
**A.** 96 % of control

**Q.** What about the T/C [3] of the same compound?
**A.** 96 % of control

**Q.** And the T/C [4]?
**A.** 100 % of control

**Q.** With `COc1cc(-c2ccc(Nc3ccccc3C(=O)O)c(OC)c2)ccc1Nc1ccccc1C(=O)O` as the compound, how does the T/C (endpoint: survival time, mean or median, dose: 12.5 mg/kg/injection, schedule: Q01DX010 (ip), vehicle: saline) read?
**A.** 117 % of control

**Q.** And the T/C [1]?
**A.** 107 % of control and 117 % of control

**Q.** And the T/C [2]?
**A.** 117 % of control and 118 % of control

**Q.** And the T/C [3]?
**A.** 96 % of control

**Q.** With `O=c1[nH]cc(F)c(=O)[nH]1` as the compound, how does the T/C (endpoint: median survival time, dose: 13.3 mg/kg/injection, schedule: Q01DX009 (ip), vehicle: saline) read?
**A.** 222 % of control

**Q.** What about the T/C (endpoint: median survival time, dose: 20.0 mg/kg/injection, schedule: Q01DX009 (ip), vehicle: saline) of the same compound?
**A.** 222 % of control

**Q.** And the T/C (endpoint: median survival time, dose: 27.0 mg/kg/injection, schedule: Q01DX009 (ip), vehicle: saline)?
**A.** 203 % of control

**Q.** And the T/C [5]?
**A.** 110 % of control

**Q.** And the T/C [6]?
**A.** 283 % of control

**Q.** And the T/C [7]?
**A.** 203 % of control

**Q.** Which T/C [1] does the source give for `OC(CBr)C(O)C(O)C(O)CBr` (centres undefined) here?
**A.** 88 % of control and 96 % of control

**Q.** What about the T/C [2] of the same compound?
**A.** 88 % of control and 110 % of control

**Q.** What about the T/C [3] of the same compound?
**A.** 100 % of control and 110 % of control

**Q.** And the T/C [4]?
**A.** 88 % of control and 110 % of control

**Q.** What does the source list for `O=c1[nH]c(=O)n(C2CC(O)C(CO)O2)cc1C(F)(F)F` (centres undefined)?
**A.** T/C (endpoint: survival time, mean or median, dose: 31.3 mg/kg/injection, schedule: Q01DX010 (ip), vehicle: saline): 119 % of control; T/C [8]: 119 % of control; T/C [9]: 100 % of control

**Q.** With `Cc1n[nH]c(=O)[nH]c1=O` as the compound, how does the T/C [9] read?
**A.** 106 % of control

**Q.** What about the T/C [10] of the same compound?
**A.** 90 % of control

**Q.** And the T/C (endpoint: survival time, mean or median, dose: 1000.0 mg/kg/injection, schedule: Q01DX010 (ip), vehicle: saline)?
**A.** 90 % of control

**Q.** How did the T/C [8] turn out when `Cc1cn(C2OC(CO)C(O)C2O)c(=O)[nH]c1=O` (centres undefined) was run?
**A.** 100 % of control

**Q.** And the T/C [9]?
**A.** 96 % of control and 100 % of control

**Q.** And the T/C [10]?
**A.** 100 % of control

**Q.** What about the T/C (endpoint: survival time, mean or median, dose: 500.0 mg/kg/injection, schedule: Q01DX010 (ip), vehicle: saline) of the same compound?
**A.** 103 % of control

**Q.** Which T/C (endpoint: median survival time, dose: 50.0 mg/kg/injection, schedule: Q01DX005 (ip), vehicle: water) does the source give for `NC(CC(=O)O)C(=O)O` (centres undefined) here?
**A.** 88 % of control

**Q.** What about the T/C (endpoint: median survival time, dose: 100.0 mg/kg/injection, schedule: Q01DX005 (ip), vehicle: water) of the same compound?
**A.** 92 % of control

**Q.** What about the T/C (endpoint: median survival time, dose: 200.0 mg/kg/injection, schedule: Q01DX005 (ip), vehicle: water) of the same compound?
**A.** 92 % of control

**Q.** How did the T/C [11] turn out when `Cn1c(N)nc2nc[nH]c2c1=S` was run?
**A.** 96 % of control and 103 % of control

**Q.** What about the T/C [6] of the same compound?
**A.** 96 % of control and 107 % of control

**Q.** What about the T/C [7] of the same compound?
**A.** 100 % of control and 107 % of control

**Q.** What about the T/C (endpoint: survival time, mean or median, dose: 80.0 mg/kg/injection, schedule: Q01DX010 (ip), vehicle: saline) of the same compound?
**A.** 96 % of control

**Q.** How did the T/C (endpoint: survival time, mean or median, dose: 0.03 mg/kg/injection, schedule: Q01DX010 (ip), vehicle: other) turn out when `Nc1nc(N)c2nc(CNc3ccc(C(=O)NC(CCC(=O)O)C(=O)O)cc3)cnc2n1` (centres undefined) was run?
**A.** 95 % of control and 100 % of control

**Q.** And the T/C (endpoint: survival time, mean or median, dose: 0.05 mg/kg/injection, schedule: Q01DX010 (ip), vehicle: other)?
**A.** 100 % of control and 110 % of control

**Q.** What about the T/C (endpoint: survival time, mean or median, dose: 0.1 mg/kg/injection, schedule: Q01DX010 (ip), vehicle: other) of the same compound?
**A.** 100 % of control and 110 % of control

**Q.** `CC[n+]1c(-c2ccccc2)c2cc(N)ccc2c2ccc(N)cc21` was tested. Which T/C (endpoint: survival time, mean or median, dose: 1.25 mg/kg/injection, schedule: Q01DX010 (ip), vehicle: saline) did it give?
**A.** 117 % of control

**Q.** What about the T/C (endpoint: survival time, mean or median, dose: 2.5 mg/kg/injection, schedule: Q01DX010 (ip), vehicle: saline) of the same compound?
**A.** 121 % of control

**Q.** What about the T/C [5] of the same compound?
**A.** 117 % of control

**Q.** And the T/C [11]?
**A.** 121 % of control
